# US20230203043A1, “NOVEL IMIDAZOPYRAZINE DERIVATIVES” (Hoffmann-La Roche Inc., priority 2020, published 2023)
# Counter-ions that a name gives are not always drawn.
# Tested on: Acinetobacter baumannii ATCC17961
# Experiment: Antimicrobial susceptibility testing: 90% growth inhibitory concentration (IC90) determination in Iso-Sensitest broth, OD600 growth
# Type: cell-based
# Details: Acinetobacter baumannii, ATCC17961, 16 h, read-out: A. baumannii ATCC 17961 IC90 (uM), strain ATCC 17961, OD600 growth over 16 h
# Procedure, shortened: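 OD600 read every 20 min for 16 h at 35±2° C; inhibition taken in log phase to derive IC90. Twofold, 10-point dilutions (e.g. 50–0.097 μM final), inoculum ~5×10^(5) CFU/ml.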
row,Structure (SMILES),IC90 [µM]
1,"CCc1cc(Nc2nccn3c(-c4cn(CC#N)nc4C(F)(F)F)cnc23)ccc1C(=O)NCCCNC(=O)CN [Example 802, N-(3-(2-aminoacetamido)propyl)-4-((3-(1-(cyanomethyl)-3-(trifluoromethyl)-1H-pyrazol-4-yl)imidazo[1,2-a]pyrazin-8-yl)amino)-2-ethylbenzamide formate]",3.54
2,"CCc1cc(Nc2nccn3c(-c4cn(CC#N)nc4C(F)(F)F)cnc23)ccc1C(=O)N[C@H](C)C(=O)N[C@@H]1CCNC1 [Example 803, 4-[[3-[1-(cyanomethyl)-3-(trifluoromethyl)pyrazol-4-yl]imidazo[1,2-a]pyrazin-8-yl]amino]-2-ethyl-N-[(1R)-1-methyl-2-oxo-2-[[(3R)-pyrrolidin-3-yl]amino]ethyl]benzamide formate]",3.77
3,"NCCOCCNC(=O)c1ccc(Nc2nccn3c(-c4cn(CC(F)F)nc4C(F)(F)F)cnc23)cc1F [Example 809, N-(2-(2-aminoethoxy)ethyl)-4-((3-(1-(2,2-difluoroethyl)-3-(trifluoromethyl)-1H-pyrazol-4-yl)imidazo[1,2-a]pyrazin-8-yl)amino)-2-fluorobenzamidei hydrochloride]",0.17

# Same assay, conditions: Acinetobacter baumannii, ATCC17961, 16 h, strain ATCC 17961, OD600 growth over 16 h, read-out: A. baumannii ATCC 17961 IC90
row,IC90 [µM],Structure (SMILES)
1,2.25,"CCc1cc(Nc2nccn3c(-c4cn(CCF)nc4C(F)F)cnc23)ccc1C(=O)N1CCN(C(=O)[C@@H](C)N)CC1 [Example 796, (R)-2-amino-1-(4-(4-((3-(3-(difluoromethyl)-1-(2-fluoroethyl)-1H-pyrazol-4-yl)imidazo[1,2-a]pyrazin-8-yl)amino)-2-ethylbenzoyl)piperazin-1-yl)propan-1-one]"
2,2.36,"CCc1cc(Nc2nccn3c(-c4cn(CC#N)nc4C(F)F)cnc23)ccc1C(=O)N1CCN(C(=O)[C@H](N)C(C)C)CC1 [Example 797, 2-(4-(8-((4-(4-(D-valyl)piperazine-1-carbonyl)-3-ethylphenyl)amino)imidazo[1,2-a]pyrazin-3-yl)-3-(difluoromethyl)-1H-pyrazol-1-yl)acetonitrile]"
3,2.36,"CCc1cc(Nc2nccn3c(-c4cn(COC)nc4C(F)F)cnc23)ccc1C(=O)N1CCN(C(=O)C2CC(O)CN2)CC1 (centres unmarked) [Example 798, (4-(4-((3-(3-(difluoromethyl)-1-(methoxymethyl)-1H-pyrazol-4-yl)imidazo[1,2-a]pyrazin-8-yl)amino)-2-ethylbenzoyl)piperazin-1-yl)(4-hydroxypyrrolidin-2-yl)methanone]"
4,2.78,"CCc1cc(Nc2nccn3c(-c4cn(CC#N)nc4C(F)F)cnc23)ccc1C(=O)N1CCN(C(=O)[C@H]2C[C@H](N)C2)CC1 [Example 800, 2-(4-(8-((4-(4-((1r,3r)-3-aminocyclobutane-1-carbonyl)piperazine-1-carbonyl)-3-ethylphenyl)amino)imidazo[1,2-a]pyrazin-3-yl)-3-(difluoromethyl)-1H-pyrazol-1-yl)acetonitrile]"
5,3,"CCc1cc(Nc2nccn3c(-c4cn(COC)nc4C(F)F)cnc23)ccc1C(=O)N1CCNCC1 [Example 801, (4-((3-(3-(difluoromethyl)-1-(methoxymethyl)-1H-pyrazol-4-yl)imidazo[1,2-a]pyrazin-8-yl)amino)-2-ethylphenyl) (piperazin-1-yl)methanone]"
6,0.88,"O=C(c1ccc(Nc2nccn3c(-c4c[nH]nc4C(F)(F)F)cnc23)cc1F)N1CCNCC1 [Example 805, (2-fluoro-4-((3-(3-(trifluoromethyl)-1H-pyrazol-4-yl)imidazo[1,2-α]pyrazin-8-yl)amino)phenyl)(piperazin-1-yl)methanone hydrochloride]"
7,0.25,"N[C@@H]1CC[C@H](C(=O)N2CCN(C(=O)c3ccc(Nc4nccn5c(-c6cn(CC(F)F)nc6C(F)(F)F)cnc45)cc3F)CC2)C1 [Example 806, (4-((1S,3R)-3-aminocyclopentane-1-carbonyl)piperazin-1-yl)(4-((3-(1-(2,2-difluoroethyl)-3-(trifluoromethyl)-1H-pyrazol-4-yl)imidazo[1,2-α]pyrazin-8-yl)amino)-2-fluorophenyl)methanone hydrochloride]"
8,0.31,"N#CCn1cc(-c2cnc3c(Nc4ccc(C(=O)N5CCN(C(=O)[C@H]6CC[C@@H](N)C6)CC5)c(F)c4)nccn23)c(C(F)(F)F)n1 [Example 807, 2-(4-(8-((4-(4-((1S,3R)-3-aminocyclo-pentane-1-carbonyl)piperazin-1-carbonyl)-3-fluorophenyl)amino)imidazo [1,2-a]pyrazin-3-yl)-3-(trifluoromethyl)-1H-pyrazol-1-yl)acetonitrile hydrochloride]"
9,0.26,"N[C@@H]1CC[C@H](C(=O)N2CCN(C(=O)c3ccc(Nc4nccn5c(-c6cn(CC7CC7)nc6C(F)(F)F)cnc45)cc3F)CC2)C1 [Example 808, (4-((1S,3R)-3-aminocyclo-pentane-1-carbonyl)piperazin-1-yl)(4-((3-(1-(cyclopropyl-methyl)-3-(trifluoromethyl)-1H-pyrazol-4-yl)imidazo[1,2-a]pyrazin-8-yl)amino)-2-fluorophenyl) methanone hydrochloride]"
10,0.25,"N#CCn1cc(-c2cnc3c(Nc4ccc(C(=O)NCCOCCN)c(F)c4)nccn23)c(C(F)(F)F)n1 [Example 810, N-(2-(2-aminoethoxy)ethyl)-4-((3-(1-(cyanomethyl)-3-(trifluoromethyl)-1H-pyrazol-4-yl)imrdazo[1,2-a]pyrazin-8-yl)amino)-2-fluorobenzamide hydrochloride]"
11,0.23,"NCCOCCNC(=O)c1ccc(Nc2nccn3c(-c4cn(CC5CC5)nc4C(F)(F)F)cnc23)cc1F [Example 811, N-(2-(2-aminoethoxy)ethyl)-4-((3-(1-(cyclopropyl-methyl)-3-(trifluoromethyl)-1H-pyrazol-4-yl)imidazo[1,2-a]pyrazin-8-yl)amino)-2-fluorobenzamide hydrochloride]"
12,0.2,"NCC(=O)N1CCN(C(=O)c2ccc(Nc3nccn4c(-c5cn(CC(F)F)nc5C(F)(F)F)cnc34)cc2F)CC1 [Example 812, 2-amino-1-(4-(4-(3-(1-2,2-difluoroethyl)-3-(trifluoromethyl)-1H-pyrazol-4-yl)imidazo[1,2-a]pyrazin-8-yl)amino)-2-fluorobenzoyl) piperazin-1-yl) ethan-1-one hydrochloride]"
13,0.21,"N#CCn1cc(-c2cnc3c(Nc4ccc(C(=O)N5CCN(C(=O)CN)CC5)c(F)c4)nccn23)c(C(F)(F)F)n1 [Example 813, 2-(4-(8-((3-fluoro-4-(4-glycylpiperazine-1-carbonyl)phenyl)amino)imidazo [1,2-a]pyrazin-3-yl)-3-(trifluoromethyl)-1H-pyrazol-1-yl)acetonitrile hydrochloride]"
14,0.14,"NCC(=O)N1CCN(C(=O)c2ccc(Nc3nccn4c(-c5cn(CC6CC6)nc5C(F)(F)F)cnc34)cc2F)CC1 [Example 814, 2-amino-1-(4-(4-((3-(1-(cyclopropyl-methyl)-3-(trifluoromethyl)-1H-pyrazol-4-yl)imidazo[1,2-a]pyrazin-8-yl)amino)-2-fluorobenzoyl)piperazin-1-yl)ethan-1-one hydrochloride]"
15,0.18,"N#CCn1cc(-c2cnc3c(Nc4ccc(C(=O)NCCNCC(=O)NCCN)c(Cl)c4)nccn23)c(C(F)(F)F)n1 [Example 815, N-(2-((2-((2-aminoethyl)amino)-2-oxoethyl)amino)ethyl)-2-chloro-4-((3-(1-(cyanomethyl)-3-(trifluoromethyl)-1H-pyrazol-4-yl)imidazo[1,2-α]pyrazin-8-yl)amino)benzamide formate]"
16,0.29,"N#CCn1cc(-c2cnc3c(Nc4ccc(C(=O)NCCNCC(=O)NC5CNC5)c(Cl)c4)nccn23)c(C(F)(F)F)n1 [Example 816, N-(2-(2-(azetidin-3-ylamino)-2-oxoethyl)amino) ethyl)-2-chloro-4-((3-(1-(cyanomethyl)-3-(trifluoromethyl)-1H-pyrazol-4-yl)imidazo[1,2-a]pyrazin-8-yl)amino) benzamide formate]"
17,0.18,"N#CCn1cc(-c2cnc3c(Nc4ccc(C(=O)NCCNCC(=O)N[C@H]5CCNC5)c(Cl)c4)nccn23)c(C(F)(F)F)n1 [Example 817, (S)-2-chloro-4-((3-(1-(cyanomethyl)-3-(trifluoromethyl)-1H-pyrazol-4-yl)imidazo[1,2-a]pyrazin-8-yl)amino)-N-(2-((2-oxo-2-(pyrrolidin-3-ylamino)ethyl)amino)ethyl) benzamide formate]"
18,0.15,"N#CCn1cc(-c2cnc3c(Nc4ccc(C(=O)NCCNCC(=O)N[C@@H]5CCNC5)c(Cl)c4)nccn23)c(C(F)(F)F)n1 [Example 818, (R)-2-chloro-4-((3-(1-(cyanomethyl)-3-(trifluoromethyl)-1H-pyrazol-4-yl)imidazo[1,2-a]pyrazin-8-yl)amino)-N-(2-((2-oxo-2-(pyrrolidin-3-ylamino)ethyl)amino)ethyl) benzamide formate]"
19,0.18,"N#CCn1cc(-c2cnc3c(Nc4ccc(C(=O)NCCNCC(=O)NCCCN)c(Cl)c4)nccn23)c(C(F)(F)F)n1 [Example 819, N-(2-((2-((3-aminopropyl)amino)-2-oxoethyl)amino)ethyl)-2-chloro-4-((3-(1-(cyanomethyl)-3-(trifluoromethyl)-1H-pyrazol-4-yl)imidazo[1,2-a]pyrazin-8-yl)amino) benzamide formate]"

# Same assay, conditions: strain ATCC 17961, OD600 growth over 16 h, read-out: A. baumannii ATCC 17961 IC90
row,IC90 [µM],Structure (SMILES)
1,0.511,"CCc1cc(Nc2nccn3c(-c4c[nH]nc4C(F)(F)F)cnc23)ccc1C(=O)NCCNC(=O)[C@H]1C[C@@H](N)C1 [Example 804, N-(2-((1s,3s)-3-aminocyclobutane-1-carboxamido)ethyl)-2-ethyl-4-((3-(3-(trifluoromethyl)-1H-pyrazol-4-yl)imidazo[1,2-a]pyrazin-8-yl)amino)benzamide formate]"
